Test results as given in patent US9187484B2 (Southern Research Institute, priority 2012, dated 2015).

What follows are molecules tested against T1, LRRK2 (G2019S) (Homo sapiens, UniProt Q5S007, G2019S) (assay: LRRK2 inhibition, radiometric kinase assay with recombinant GST-LRRK2 (delta970) and peptide substrate). Conditions: GST-LRRK2 (delta970) G2019S 30 nM, ATP ~52 μM (Km), 30 min at 30° C.
T1 construct: Recombinant GST-LRRK2 (delta970), purified from baculovirus infected insect cells (SF9); GST (N); host or cells: baculovirus infected insect cells (SF9)
Type: biochemical
Experimental: Compounds were assessed for inhibition of LRRK2 inhibition using the following procedure.
Recombinant GST-LRRK2 (delta970), purified from baculovirus infected insect cells (SF9), at least 90% pure and either wild-type sequence or bearing the pathogenic G2019S mutation, was combined into a kinase buffer at 30 nM concentration. Kinase buffer consists of 50 mM Tris HCl pH 7.4, 1 mM EDTA, and 50 μM peptide substrate (amino acid sequence […]). Experimental compounds or control (no compound) were added at desired concentrations in DMSO and water, where final concentration of DMSO in kinase reactions was 0.1% for all drug concentrations. Activation buffer that consists of a final concentration in the reactions of 10 mM MgCl2 and ATP (˜92 μM for WT-LRRK2 reactions and ˜52 μM for G2019S-LRRK2, which represent respective Km ATP concentrations) were added to each reaction, in addition to 0.5 μCi of gamma-32-P-dATP per reaction. Reactions were incubated at 1400 RPM at 30° C. for 30 min. and then spotted in triplicate directly onto a slot-blot apparatus fitted with phospho-cellulose paper and allowed to dry. Each slot was then washed with 10 mM phosphoric acid buffer until beta-radiation could not be detected in eluted wash buffer, usually ˜1 mL per slot. Paper within each slot were excised and radiation measured by liquid scintillation.

T1 sequence (Q5S007 970-2527 G2019S limits assumed): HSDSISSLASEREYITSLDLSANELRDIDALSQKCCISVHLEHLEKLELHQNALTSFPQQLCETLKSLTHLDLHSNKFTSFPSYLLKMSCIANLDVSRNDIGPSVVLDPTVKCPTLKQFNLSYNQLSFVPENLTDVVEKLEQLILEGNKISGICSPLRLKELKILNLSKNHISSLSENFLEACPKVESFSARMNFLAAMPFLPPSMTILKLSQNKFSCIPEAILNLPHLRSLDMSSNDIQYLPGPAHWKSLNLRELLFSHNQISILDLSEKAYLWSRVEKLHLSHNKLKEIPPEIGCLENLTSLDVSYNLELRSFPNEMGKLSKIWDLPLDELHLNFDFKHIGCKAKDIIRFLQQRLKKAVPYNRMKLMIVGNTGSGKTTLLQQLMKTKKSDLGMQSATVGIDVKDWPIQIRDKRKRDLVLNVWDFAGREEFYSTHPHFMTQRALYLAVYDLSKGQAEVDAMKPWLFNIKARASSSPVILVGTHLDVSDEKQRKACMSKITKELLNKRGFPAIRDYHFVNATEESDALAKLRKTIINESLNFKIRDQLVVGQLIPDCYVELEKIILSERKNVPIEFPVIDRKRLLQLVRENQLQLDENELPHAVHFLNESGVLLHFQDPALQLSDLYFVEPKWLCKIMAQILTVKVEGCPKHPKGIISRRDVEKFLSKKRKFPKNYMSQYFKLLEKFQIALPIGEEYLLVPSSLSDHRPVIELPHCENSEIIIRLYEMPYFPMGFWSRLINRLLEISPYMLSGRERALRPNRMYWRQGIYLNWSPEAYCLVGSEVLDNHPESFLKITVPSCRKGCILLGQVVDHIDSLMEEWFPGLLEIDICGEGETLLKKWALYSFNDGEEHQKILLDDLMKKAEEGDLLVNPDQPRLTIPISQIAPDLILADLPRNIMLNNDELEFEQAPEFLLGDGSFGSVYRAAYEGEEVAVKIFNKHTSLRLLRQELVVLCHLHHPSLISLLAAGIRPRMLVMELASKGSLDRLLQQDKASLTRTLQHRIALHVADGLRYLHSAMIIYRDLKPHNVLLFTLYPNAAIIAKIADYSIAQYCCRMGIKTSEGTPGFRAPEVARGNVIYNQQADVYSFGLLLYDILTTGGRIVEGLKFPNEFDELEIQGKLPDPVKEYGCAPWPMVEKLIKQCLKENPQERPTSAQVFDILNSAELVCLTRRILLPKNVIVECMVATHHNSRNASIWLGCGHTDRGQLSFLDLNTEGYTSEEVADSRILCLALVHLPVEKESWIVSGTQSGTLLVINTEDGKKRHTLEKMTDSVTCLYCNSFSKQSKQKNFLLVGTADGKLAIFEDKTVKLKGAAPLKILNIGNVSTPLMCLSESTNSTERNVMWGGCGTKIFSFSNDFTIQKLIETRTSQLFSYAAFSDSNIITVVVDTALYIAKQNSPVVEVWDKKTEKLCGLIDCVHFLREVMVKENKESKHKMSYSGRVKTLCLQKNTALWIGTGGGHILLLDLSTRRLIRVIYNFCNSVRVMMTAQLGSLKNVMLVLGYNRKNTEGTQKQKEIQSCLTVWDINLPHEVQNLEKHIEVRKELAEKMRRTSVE

| IC50 | SMILES |
| --- | --- |
| ≥ 5000 nM | CCC(Sc1ccc2nnc(-c3ccc(F)cc3)n2n1)C(=O)Nc1cnc2ccccc2c1 (stereo not drawn) [Example 12] |
| 100 to 1000 nM | NC(=O)CSc1ccc2nnc(-c3ccco3)n2n1 [Example 26, 2-((3-(furan-2-yl)-[1,2,4]triazolo[4,3-b]pyridazin-6-yl)thio)acetamide] |
| 1000 to 5000 nM | CCOC(=O)C(CC)Sc1ccc2nnc(-c3ccccc3F)n2n1 (stereo not drawn) [Example 74, ethyl 2-((3-(2-fluorophenyl)-[1,2,4]triazolo[4,3-b]pyridazin-6-yl)thio)butanoate] |
| ≥ 5000 nM | O=C(O)CSc1ccc2nnc(-c3cccs3)n2n1 [Example 27, 2-((3-(thiophen-2-yl)-[1,2,4]triazolo[4,3-b]pyridazin-6-yl)thio)acetic acid] |
| ≥ 5000 nM | CCC(Nc1ccc2nnc(-c3cccs3)n2n1)C(N)=O (stereo not drawn) [Example 99, 2-((3-(thiophen-2-yl)-[1,2,4]triazolo[4,3-b]pyridazin-6-yl)amino)butanamide] |
| ≥ 5000 nM | Cc1scc(-c2nnc3ccc(SCC(=O)O)nn23)c1-c1ccccc1 [Example 39, 2-((3-(5-methyl-4-phenylthiophen-3-yl)-[1,2,4]triazolo[4,3-b]pyridazin-6-yl)thio)acetic acid] |
| 100 to 1000 nM | CCC(Sc1ccc2nnc(-c3ccc(Cl)s3)n2n1)C(=O)N1CCCC1 (stereo not drawn) [Example 63, 2-((3-(5-chlorothiophen-2-yl)-[1,2,4]triazolo[4,3-b]pyridazin-6-yl)thio)-1-(pyrrolidin-1-yl)butan-1-one] |
| ≥ 5000 nM | NC(=O)CSc1ccc2nnc(C3CCCCC3)n2n1 [Example 10, 2-((3-cyclohexyl-[1,2,4]triazolo[4,3-b]pyridazin-6-yl)thio)acetamide] |
| 100 to 1000 nM | CCC(Sc1ccc2nnc(-c3ccc(F)cc3)n2n1)C(=O)N1CCCC1 (stereo not drawn) [Example 8, 2-((3-(4-fluorophenyl)-[1,2,4]triazolo[4,3-b]pyridazin-6-yl)thio)-1-(pyrrolidin-1-yl)butan-1-one] |
| 100 to 1000 nM | CCC(Sc1ccc2nnc(-c3ccccc3)n2n1)C(=O)N1CCCCC1 (stereo not drawn) [Example 106, 2-((3-phenyl-[1,2,4]triazolo[4,3-b]pyridazin-6-yl)thio)-1-(piperidin-1-yl)butan-1-one] |
| 1000 to 5000 nM | Cc1ccc(-c2nnc3ccc(SCC(=O)N4CCCCC4)nn23)s1 [Example 57, 2-((3-(5-methylthiophen-2-yl)-[1,2,4]triazolo[4,3-b]pyridazin-6-yl)thio)-1-(piperidin-1-yl)ethanone] |
| 100 to 1000 nM | CCC(Sc1ccc2nnc(-c3nccs3)n2n1)C(=O)N1CCCCC1 (stereo not drawn) [Example 60, 1-(piperidin-1-yl)-2-((3-(thiazol-2-yl)-[1,2,4]triazolo[4,3-b]pyridazin-6-yl)thio)butan-1-one] |
| ≥ 5000 nM | CCC(Sc1ccc2nnc(-c3ccc(C(F)(F)F)cc3)n2n1)C(N)=O (stereo not drawn) [Example 78, 2-((3-(4-(trifluoromethyl)phenyl)-[1,2,4]triazolo[4,3-b]pyridazin-6-yl)thio)butanamide] |
| < 100 nM | CC(Sc1ccc2nnc(-c3cccs3)n2n1)C(=O)N1CCCC1 (stereo not drawn) [Example 105, 1-(pyrrolidin-1-yl)-2-((3-(thiophen-2-yl)-[1,2,4]triazolo[4,3-b]pyridazin-6-yl)thio)propan-1-one] |
| ≥ 5000 nM | O=C(O)CSc1ccc2nnc(-c3csc4ccccc34)n2n1 [Example 38, 2-((3-(benzo[b]thiophen-3-yl)-[1,2,4]triazolo[4,3-b]pyridazin-6-yl)thio)acetic acid] |
| ≥ 5000 nM | c1csc(-c2nnc3ccc(N4CCCCC4)nn23)c1 [Example 20, 6-(piperidin-1-yl)-3-(thiophen-2-yl)-[1,2,4]triazolo[4,3-b]pyridazine] |
| 100 to 1000 nM | CC(Sc1ccc2nnc(-c3cnccn3)n2n1)C(=O)N1CCCCC1 (stereo not drawn) [Example 108, 1-(piperidin-1-yl)-2-((3-(pyrazin-2-yl)-[1,2,4]triazolo[4,3-b]pyridazin-6-yl)thio)propan-1-one] |
| 100 to 1000 nM | CCC(Sc1ccc2nnc(-c3cccc(F)c3)n2n1)C(=O)N1CCCCC1 (stereo not drawn) [Example 97, 2-((3-(3-fluorophenyl)-[1,2,4]triazolo[4,3-b]pyridazin-6-yl)thio)-1-(piperidin-1-yl)butan-1-one] |
| ≥ 5000 nM | CCC(Sc1ccc2nnc(-c3ccccc3OC)n2n1)C(=O)N1CCCCC1 (stereo not drawn) [Example 70, 2-((3-(2-methoxyphenyl)-[1,2,4]triazolo[4,3-b]pyridazin-6-yl)thio)-1-(piperidin-1-yl)butan-1-one] |
| 100 to 1000 nM | CCC(Sc1ccc2nnc(-c3cccc(F)c3)n2n1)C(=O)O (stereo not drawn) [Example 56, 2-((3-(3-fluorophenyl)-[1,2,4]triazolo[4,3-b]pyridazin-6-yl)thio)butanoic acid] |

| IC50 | SMILES |
| --- | --- |
| ≥ 5000 nM | O=C(O)CSc1ccc2nnc(-c3cc4ccccc4s3)n2n1 [Example 30, 2-((3-(benzo[b]thiophen-2-yl)-[1,2,4]triazolo[4,3-b]pyridazin-6-yl)thio)acetic acid] |
| ≥ 5000 nM | CCOC(=O)C(CC)Sc1ccc2nnc(-c3ccc(OC)cc3)n2n1 (stereo not drawn) [Example 65, ethyl 2-((3-(4-methoxyphenyl)-[1,2,4]triazolo[4,3-b]pyridazin-6-yl)thio)butanoate] |
| 100 to 1000 nM | CC(Sc1ccc2nnc(-c3ccn(C)n3)n2n1)C(=O)N1CCCCC1 (stereo not drawn) [Example 113, 2-((3-(1-methyl-1H-pyrazol-3-yl)-[1,2,4]triazolo[4,3-b]pyridazin-6-yl)thio)-1-(piperidin-1-yl)propan-1-one] |
| ≥ 5000 nM | CCOC(=O)C(CC)Oc1ccc2nnc(-c3cccs3)n2n1 (stereo not drawn) [Example 82, ethyl 2-((3-(thiophen-2-yl)-[1,2,4]triazolo[4,3-b]pyridazin-6-yl)oxy)butanoate] |
| 1000 to 5000 nM | CC(C)(Sc1ccc2nnc(-c3cccs3)n2n1)C(=O)N1CCCC1 [Example 107, 2-methyl-1-(pyrrolidin-1-yl)-2-((3-(thiophen-2-yl)-[1,2,4]triazolo[4,3-b]pyridazin-6-yl)thio)propan-1-one] |
| ≥ 5000 nM | NC(=O)CSc1ccc2nnc(-c3ccccn3)n2n1 [Example 16, 2-((3-(pyridin-2-yl)-[1,2,4]triazolo[4,3-b]pyridazin-6-yl)thio)acetamide] |
| 100 to 1000 nM | CCC(Sc1ccc2nnc(-c3cccs3)n2n1)C(=O)NCc1cccs1 (stereo not drawn) [Example 48, 2-((3-(thiophen-2-yl)-[1,2,4]triazolo[4,3-b]pyridazin-6-yl)thio)-N-(thiophen-2-ylmethyl)butanamide] |
| ≥ 5000 nM | NC(=O)CSc1ccc2nnc(-c3nccs3)n2n1 [Example 37, 2-((3-(thiazol-2-yl)-[1,2,4]triazolo[4,3-b]pyridazin-6-yl)thio)acetamide] |
| 100 to 1000 nM | CC(Sc1ccc2nnc(-c3cccs3)n2n1)C(=O)O (stereo not drawn) [Example 36, 2-((3-(thiophen-2-yl)-[1,2,4]triazolo[4,3-b]pyridazin-6-yl)thio)propanoic acid] |
| 100 to 1000 nM | CCC(Sc1ccc2nnc(-c3ccc(F)cc3)n2n1)C(=O)O (stereo not drawn) [Example 6, 2-((3-(4-fluorophenyl)-[1,2,4]triazolo[4,3-b]pyridazin-6-yl)thio)butanoic acid] |
| 100 to 1000 nM | CCc1ccc(-c2nnc3ccc(SC(CC)C(=O)N4CCCCC4)nn23)s1 (stereo not drawn) [Example 87, 2-((3-(5-ethylthiophen-2-yl)-[1,2,4]triazolo[4,3-b]pyridazin-6-yl)thio)-1-(piperidin-1-yl)butan-1-one] |
| ≥ 5000 nM | O=C(CSc1ccc2nnc(-c3ccc(F)cc3)n2n1)Nc1nccs1 [Example 43, 2-((3-(4-fluorophenyl)-[1,2,4]triazolo[4,3-b]pyridazin-6-yl)thio)-N-(thiazol-2-yl)acetamide] |
| 100 to 1000 nM | CCC(Sc1ccc2nnc(-c3cccs3)n2n1)C(=O)N1CCOCC1 (stereo not drawn) [Example 47, 1-morpholino-2-((3-(thiophen-2-yl)-[1,2,4]triazolo[4,3-b]pyridazin-6-yl)thio)butan-1-one] |
| ≥ 5000 nM | CCOC(=O)C(CC)Sc1ccc2nnc(-c3ccccc3OC)n2n1 (stereo not drawn) [Example 68, ethyl 2-((3-(2-methoxyphenyl)-[1,2,4]triazolo[4,3-b]pyridazin-6-yl)thio)butanoate] |
| 100 to 1000 nM | CCC(Sc1ccc2nnc(-c3cccs3)n2n1)C(=O)N1CCC1 (stereo not drawn) [Example 114, 1-(azetidin-1-yl)-2-((3-(thiophen-2-yl)-[1,2,4]triazolo[4,3-b]pyridazin-6-yl)thio)butan-1-one] |
| ≥ 5000 nM | CCC(Sc1ccc2nnc(-c3ccc(C(F)(F)F)cc3)n2n1)C(=O)O (stereo not drawn) [Example 53, 2-((3-(4-(trifluoromethyl)phenyl)-[1,2,4]triazolo[4,3-b]pyridazin-6-yl)thio)butanoic acid] |
| 100 to 1000 nM | CCC(Sc1ccc2nnc(-c3ccc(C)s3)n2n1)C(=O)O (stereo not drawn) [Example 89, 2-((3-(5-methylthiophen-2-yl)-[1,2,4]triazolo[4,3-b]pyridazin-6-yl)thio)butanoic acid] |
| ≥ 5000 nM | CCC(Sc1ccc2nnc(-c3ccc(C)s3)n2n1)C(=O)N1CCCCC1 (stereo not drawn) [Example 59, 2-((3-(5-methylthiophen-2-yl)-[1,2,4]triazolo[4,3-b]pyridazin-6-yl)thio)-1-(piperidin-1-yl)butan-1-one] |
| 100 to 1000 nM | CCC(Sc1ccc2nnc(-c3cccs3)n2n1)C(=O)N1CCCCC1C (stereo not drawn) [Example 104, 1-(2-methylpiperidin-1-yl)-2-((3-(thiophen-2-yl)-[1,2,4]triazolo[4,3-b]pyridazin-6-yl)thio)butan-1-one] |
